Assay results as given in ChEMBL document CHEMBL2016565, “Cellular uptake of covalent conjugates of oligonucleotide with membrane-modifying peptide, peptaibol” (Bioorg Med Chem, 2012).
Active and inactive are the calls of the source. The rule behind the calls is not given here.

Columns and labels:
A549 [1] = test: Drug uptake in human A549 cells after 24 hrs by confocal laser-scanning microscopy; format: ADME, cell-based; settings: a549, 24 h
A549 [2] = test: Drug uptake in human A549 cells at 1 to 4 uM by confocal laser-scanning microscopy; format: ADME, cell-based; settings: a549, 4 µM
A549 [3] = test: Drug uptake in human A549 cells assessed as increase in fluorescence intensity at 1 uM after 2 hrs by fluorescence analysis using fluorescein labelled compound relative to oligonucleotide treated control; format: ADME, cell-based; settings: a549, 2 h
A549 [4] = test: Drug uptake in human A549 cells assessed as increase in fluorescence intensity at 1 uM after 8 hrs by fluorescence analysis using fluorescein labelled compound relative to oligonucleotide treated control; format: ADME, cell-based; settings: a549, 8 h
A549 [5] = test: Drug uptake in human A549 cells assessed as increase in fluorescence intensity at 1 uM after 24 hrs by fluorescence analysis using fluorescein labelled compound relative to oligonucleotide treated control; format: ADME, cell-based; settings: a549, 24 h
A549 [6] = test: Antisense activity in human A549 cells assessed as down regulation of p53 protein at 1 uM incubated for 8 hrs in serum-free medium followed by 24 hrs incubation in serum-containing medium by Western blotting analysis; format: functional, cell-based
A549 [7] = test: Antisense activity in human A549 cells assessed as down regulation of p53 protein at 5 uM incubated for 8 hrs in serum-free medium followed by 24 hrs incubation in serum-containing medium by Western blotting analysis; format: functional
A549 [8] = test: Cytotoxicity against human A549 cells assessed as cytoplasmic LDH release at 5 uM after 2 to 24 hrs by spectrophotometry; format: cell-based; settings: a549, 5 µM
A549 [9] = test: Drug uptake in human A549 cells assessed as increase in fluorescence intensity at 1 uM after 24 hrs by fluorescence analysis relative to control; format: ADME, cell-based; settings: a549, 24 h

SMILES | Drug uptake (A549 [1]) | Drug uptake (A549 [2]; TDE = time-dependent effect) | fold change (FC) (A549 [3]) | fold change (FC) (A549 [4]) | fold change (FC) (A549 [5]) | Activity (A549 [6]) | Activity (A549 [7]) [%] | Activity (A549 [8]) | Drug uptake (A549 [9]) | Drug uptake (A549 [2])
CC[C@H](C)[C@H](NC(=O)[C@H](CC(N)=O)NC(=O)C(C)(C)NC(C)=O)C(=O)N[C@H](C(=O)NC(C)(C)C(=O)N1CCC[C@H]1C(=O)N[C@@H](CC(C)C)C(=O)N[C@@H](CC(C)C)C(=O)NC(C)(C)C(=O)N1CCC[C@H]1C(=O)N[C@H](C(=O)N[C@@H](CSC1CC(=O)N(CCCCCC(=O)NCCCCCCOP(=O)(O)OC[C@H]2O[C@@H](n3ccc(N)nc3=O)C[C@@H]2OP(O)(=S)OC[C@H]2O[C@@H](n3ccc(N)nc3=O)C[C@@H]2OP(O)(=S)OC[C@H]2O[C@@H](n3ccc(N)nc3=O)C[C@@H]2OP(O)(=S)OC[C@H]2O[C@@H](n3cc(C)c(=O)[nH]c3=O)C[C@@H]2OP(O)(=S)OC[C@H]2O[C@@H](n3cnc4c(=O)[nH]c(N)nc43)C[C@@H]2OP(O)(=S)OC[C@H]2O[C@@H](n3ccc(N)nc3=O)C[C@@H]2OP(O)(=S)OC[C@H]2O[C@@H](n3cc(C)c(=O)[nH]c3=O)C[C@@H]2OP(O)(=S)OC[C@H]2O[C@@H](n3ccc(N)nc3=O)C[C@@H]2OP(O)(=S)OC[C@H]2O[C@@H](n3ccc(N)nc3=O)C[C@@H]2OP(O)(=S)OC[C@H]2O[C@@H](n3ccc(N)nc3=O)C[C@@H]2OP(O)(=S)OC[C@H]2O[C@@H](n3ccc(N)nc3=O)C[C@@H]2OP(O)(=S)OC[C@H]2O[C@@H](n3ccc(N)nc3=O)C[C@@H]2OP(O)(=S)OC[C@H]2O[C@@H](n3ccc(N)nc3=O)C[C@@H]2OP(O)(=S)OC[C@H]2O[C@@H](n3cc(C)c(=O)[nH]c3=O)C[C@@H]2OP(O)(=S)OC[C@H]2O[C@@H](n3cnc4c(=O)[nH]c(N)nc43)C[C@@H]2OP(O)(=S)OC[C@H]2O[C@@H](n3cnc4c(=O)[nH]c(N)nc43)C[C@@H]2OP(O)(=S)OC[C@H]2O[C@@H](n3ccc(N)nc3=O)C[C@@H]2OP(O)(=S)OC[C@H]2O[C@@H](n3cc(C)c(=O)[nH]c3=O)C[C@@H]2OP(O)(=S)OC[C@H]2O[C@@H](n3ccc(N)nc3=O)C[C@@H]2OP(O)(=S)OC[C@H]2O[C@@H](n3ccc(N)nc3=O)C[C@@H]2O)C1=O)C(N)=O)[C@@H](C)CC)[C@@H](C)CC (some centres undefined) | Dose-dependent effect | tde | 4 | 7 | 14 | inactive | 50 | Non-toxic |  | 
CC[C@H](C)[C@H](NC(=O)[C@H](CC(N)=O)NC(=O)C(C)(C)NC(C)=O)C(=O)N[C@H](C(=O)NC(C)(C)C(=O)N1CCC[C@H]1C(=O)N[C@@H](CC(C)C)C(=O)N[C@@H](CC(C)C)C(=O)NC(C)(C)C(=O)N1CCC[C@H]1C(=O)N[C@H](C(=O)N[C@@H](CSC1CC(=O)N(CCCCCC(=O)NCCCCCCOP(=O)(O)OC[C@H]2O[C@@H](n3cnc4c(=O)[nH]c(N)nc43)C[C@@H]2OP(O)(=S)OC[C@H]2O[C@@H](n3cnc4c(=O)[nH]c(N)nc43)C[C@@H]2OP(O)(=S)OC[C@H]2O[C@@H](n3cnc4c(N)ncnc43)C[C@@H]2OP(O)(=S)OC[C@H]2O[C@@H](n3cnc4c(=O)[nH]c(N)nc43)C[C@@H]2OP(O)(=S)OC[C@H]2O[C@@H](n3ccc(N)nc3=O)C[C@@H]2OP(O)(=S)OC[C@H]2O[C@@H](n3ccc(N)nc3=O)C[C@@H]2OP(O)(=S)OC[C@H]2O[C@@H](n3cnc4c(N)ncnc43)C[C@@H]2OP(O)(=S)OC[C@H]2O[C@@H](n3cnc4c(=O)[nH]c(N)nc43)C[C@@H]2OP(O)(=S)OC[C@H]2O[C@@H](n3cnc4c(=O)[nH]c(N)nc43)C[C@@H]2OP(O)(=S)OC[C@H]2O[C@@H](n3cnc4c(=O)[nH]c(N)nc43)C[C@@H]2OP(O)(=S)OC[C@H]2O[C@@H](n3cnc4c(=O)[nH]c(N)nc43)C[C@@H]2OP(O)(=S)OC[C@H]2O[C@@H](n3cnc4c(=O)[nH]c(N)nc43)C[C@@H]2OP(O)(=S)OC[C@H]2O[C@@H](n3cnc4c(=O)[nH]c(N)nc43)C[C@@H]2OP(O)(=S)OC[C@H]2O[C@@H](n3cnc4c(N)ncnc43)C[C@@H]2OP(O)(=S)OC[C@H]2O[C@@H](n3cnc4c(=O)[nH]c(N)nc43)C[C@@H]2OP(O)(=S)OC[C@H]2O[C@@H](n3ccc(N)nc3=O)C[C@@H]2OP(O)(=S)OC[C@H]2O[C@@H](n3cnc4c(N)ncnc43)C[C@@H]2OP(O)(=S)OC[C@H]2O[C@@H](n3cnc4c(=O)[nH]c(N)nc43)C[C@@H]2OP(O)(=S)OC[C@H]2O[C@@H](n3cnc4c(=O)[nH]c(N)nc43)C[C@@H]2OP(O)(=S)OC[C@H]2O[C@@H](n3cnc4c(=O)[nH]c(N)nc43)C[C@@H]2O)C1=O)C(N)=O)[C@@H](C)CC)[C@@H](C)CC (some centres undefined) |  |  |  |  |  |  |  |  | Not Active | 
CC[C@H](C)[C@H](NC(=O)[C@H](CC(N)=O)NC(=O)C(C)(C)NC(C)=O)C(=O)N[C@H](C(=O)NC(C)(C)C(=O)N1CCC[C@H]1C(=O)N[C@@H](CC(C)C)C(=O)N[C@@H](CC(C)C)C(=O)NC(C)(C)C(=O)N1CCC[C@H]1C(=O)N[C@H](C(=O)N[C@@H](CSSCCCCCCOP(=O)(O)OC[C@H]1O[C@@H](n2ccc(N)nc2=O)C[C@@H]1OP(O)(=S)OC[C@H]1O[C@@H](n2ccc(N)nc2=O)C[C@@H]1OP(O)(=S)OC[C@H]1O[C@@H](n2ccc(N)nc2=O)C[C@@H]1OP(O)(=S)OC[C@H]1O[C@@H](n2cc(C)c(=O)[nH]c2=O)C[C@@H]1OP(O)(=S)OC[C@H]1O[C@@H](n2cnc3c(=O)[nH]c(N)nc32)C[C@@H]1OP(O)(=S)OC[C@H]1O[C@@H](n2ccc(N)nc2=O)C[C@@H]1OP(O)(=S)OC[C@H]1O[C@@H](n2cc(C)c(=O)[nH]c2=O)C[C@@H]1OP(O)(=S)OC[C@H]1O[C@@H](n2ccc(N)nc2=O)C[C@@H]1OP(O)(=S)OC[C@H]1O[C@@H](n2ccc(N)nc2=O)C[C@@H]1OP(O)(=S)OC[C@H]1O[C@@H](n2ccc(N)nc2=O)C[C@@H]1OP(O)(=S)OC[C@H]1O[C@@H](n2ccc(N)nc2=O)C[C@@H]1OP(O)(=S)OC[C@H]1O[C@@H](n2ccc(N)nc2=O)C[C@@H]1OP(O)(=S)OC[C@H]1O[C@@H](n2ccc(N)nc2=O)C[C@@H]1OP(O)(=S)OC[C@H]1O[C@@H](n2cc(C)c(=O)[nH]c2=O)C[C@@H]1OP(O)(=S)OC[C@H]1O[C@@H](n2cnc3c(=O)[nH]c(N)nc32)C[C@@H]1OP(O)(=S)OC[C@H]1O[C@@H](n2cnc3c(=O)[nH]c(N)nc32)C[C@@H]1OP(O)(=S)OC[C@H]1O[C@@H](n2ccc(N)nc2=O)C[C@@H]1OP(O)(=S)OC[C@H]1O[C@@H](n2cc(C)c(=O)[nH]c2=O)C[C@@H]1OP(O)(=S)OC[C@H]1O[C@@H](n2ccc(N)nc2=O)C[C@@H]1OP(O)(=S)OC[C@H]1O[C@@H](n2ccc(N)nc2=O)C[C@@H]1O)C(N)=O)[C@@H](C)CC)[C@@H](C)CC (some centres undefined) |  |  |  |  |  | inactive | 20 | Non-toxic |  | 
Nc1ccn([C@H]2C[C@H](OP(O)(=S)OC[C@H]3O[C@@H](n4cnc5c(N)ncnc54)C[C@@H]3OP(O)(=S)OC[C@H]3O[C@@H](n4cnc5c(=O)[nH]c(N)nc54)C[C@@H]3OP(O)(=S)OC[C@H]3O[C@@H](n4cnc5c(=O)[nH]c(N)nc54)C[C@@H]3OP(O)(=S)OC[C@H]3O[C@@H](n4cnc5c(=O)[nH]c(N)nc54)C[C@@H]3OP(O)(=S)OC[C@H]3O[C@@H](n4cnc5c(=O)[nH]c(N)nc54)C[C@@H]3OP(O)(=S)OC[C@H]3O[C@@H](n4cnc5c(=O)[nH]c(N)nc54)C[C@@H]3OP(O)(=S)OC[C@H]3O[C@@H](n4cnc5c(=O)[nH]c(N)nc54)C[C@@H]3OP(O)(=S)OC[C@H]3O[C@@H](n4cnc5c(N)ncnc54)C[C@@H]3OP(O)(=S)OC[C@H]3O[C@@H](n4cnc5c(=O)[nH]c(N)nc54)C[C@@H]3OP(O)(=S)OC[C@H]3O[C@@H](n4ccc(N)nc4=O)C[C@@H]3OP(O)(=S)OC[C@H]3O[C@@H](n4cnc5c(N)ncnc54)C[C@@H]3OP(O)(=S)OC[C@H]3O[C@@H](n4cnc5c(=O)[nH]c(N)nc54)C[C@@H]3OP(O)(=S)OC[C@H]3O[C@@H](n4cnc5c(=O)[nH]c(N)nc54)C[C@@H]3OP(O)(=S)OC[C@H]3O[C@@H](n4cnc5c(=O)[nH]c(N)nc54)C[C@@H]3O)[C@@H](COP(O)(=S)O[C@H]3C[C@H](n4ccc(N)nc4=O)O[C@@H]3COP(O)(=S)O[C@H]3C[C@H](n4cnc5c(=O)[nH]c(N)nc54)O[C@@H]3COP(O)(=S)O[C@H]3C[C@H](n4cnc5c(N)ncnc54)O[C@@H]3COP(O)(=S)O[C@H]3C[C@H](n4cnc5c(=O)[nH]c(N)nc54)O[C@@H]3COP(O)(=S)O[C@H]3C[C@H](n4cnc5c(=O)[nH]c(N)nc54)O[C@@H]3CO)O2)c(=O)n1 (some centres undefined) | Not Active |  |  |  |  |  |  |  |  | Not Active
